One data set has as its system rat. In words: Loss of righting reflex / anesthesia after intravenous injection in rats. In kind it is in vivo. As to conditions: for onset of loss of righting reflex: two rats; for duration of anesthesia / loss of righting reflex: 10 mg/kg i.v. bolus. How it is done:
For Examples 2 and 3, compounds were administered into the […] of the rat. The vehicle was 12-16% Cremophor EL dissolved in saline. The purity of each compound was approximately 96%.
Compound 1 was synthesized as described in Example 1. Approximately 15 mg/ml of the suspension were injected into the lateral tail vein of two rats (weight 300-320 g). […] The loss of righting reflex lasted for about 4 to 5 minutes. Upon awaking, the animals became active (e.g., started exploring behavior, walking, chewing, etc.).
Compound 3 (prepared as in Example 1) was formulated in Cremophor EL at a concentration of 10 mg/ml. Compound 3 was injected into the lateral tail vein of two rats at a dose of 10 mg/kg.

Another data set has as its system GABA receptors. The data set is described as follows: In vitro assay of direct activation of GABA receptors. As to conditions: FIG. 2. The class given is cell-based. From the text:
FIG. 2 is a graph showing the direct activation of GABA receptors by phenolic compounds.
Propofol and analogs are known to activate GABA receptors (see, e.g., Trapani et al., J. Med. Chem. 1998, 41, 1846-1854, incorporated herein by reference). While the relationship between GABA activation and anesthetic activity is not completely clear, it is believed that the ability of a compound to directly activate GABA receptors may be related to the anesthetic, sedative, and/or anxiolytic activity of the compound. Compounds of the invention can be tested in vitro electrophysiological assays to determine the ability of the compound to activate GABA receptors.
Certain compounds were tested in an in vitro assay to determine whether the compounds were capable of direct activation of GABA receptors.

Where [1] appears, read: lateral tail vein injection, approximately 15 mg/ml suspension.

As to `CC(C)c1cccc(CC(F)(F)F)c1O` [Compound 1, 2-isopropyl-6-(2,2,2-trifluoroethyl) phenol], in the data set on rat (setting [1]), the “response to tail pinching during loss of righting reflex” value is “did not respond to tail pinching” and the “shaking or tremors during induction or recovery” value was “did not exhibit shaking or tremors”. Further, the “onset of loss of righting reflex” value in the data set with rat (lateral tail vein injection, approximately 15 mg/ml suspension, Cremophor EL/saline vehicle) was “immediately lost their righting reflex”. Also, the “direct activation of GABA receptors” value in the data set with GABA receptors is “found to have activity”.
On to `CC(C)c1cccc(C(C)C(F)(F)F)c1O` (stereo not shown) [Compound 3, 2-isopropyl-6-(1-trifluoromethyl)ethyl phenol], for which, in the data set with rat, the “duration of anesthesia / loss of righting reflex” value is listed as “approximately 10 min”. For the same compound, the “potency relative to propofol” value in the data set with rat (10 mg/kg, inferred from duration of loss of righting reflex) is “more potent than propofol”. In addition, the “onset of loss of righting reflex” value in the data set with rat (lateral tail vein injection, 10 mg/kg, 10 mg/ml in Cremophor EL) is “immediately lost their righting reflex”. Moreover, the “direct activation of GABA receptors” value in the data set on GABA receptors is listed as “found to have activity”.
Regarding `CC(C)c1cc(C(O)C(F)(F)F)cc(C(C)C)c1O` (stereo not shown) [MB003, 2,6-Diisopropyl-4-(2,2,2-trifluoro-1-hydroxy-ethyl)-phenol], the “direct activation of GABA receptors” value in the data set on GABA receptors is “found to have activity”.
`CC(C)c1cccc(C(C)C)c1O` [Propofol, 2,6-diisopropylphenol, reference compound]: the “duration of anesthesia / loss of righting reflex” value in the data set with rat is given as 7.5 min.
